Tests used:
Assay type in all cases: cell-based
[1] = target: BTK (Homo sapiens, UniProt Q06187); test: BTK degradation, DC50 and Dmax of Table 1 (cell line not given); design: endogenous in cells; conditions: for DC50: concentration giving 50% reduction of BTK expression level
[2] = tested on: Mino cells; test: Antiproliferative effect, MTS cell viability assay, Mino cells; conditions: Homo sapiens, MINO, Mino mantle cell lymphoma cells; read-out: IC50 (anti-proliferation) Mino cells
Outline: (§1)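 MTS read-out, A490 of formazan from metabolically active cells; compound 0–10 μM (0, 0.001, 0.01, 0.1, 1, 10 μM), 72 h exposure.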

[3] = tested on: JeKo-1 cells; test: Antiproliferative effect, MTS cell viability assay, JeKo-1 cells; conditions: Homo sapiens; JeKo-1 mantle cell lymphoma cells; read-out: IC50 (anti-proliferation) JeKO-1 cells
Outline: as §1

Chain of BTK (Q06187 whole entry): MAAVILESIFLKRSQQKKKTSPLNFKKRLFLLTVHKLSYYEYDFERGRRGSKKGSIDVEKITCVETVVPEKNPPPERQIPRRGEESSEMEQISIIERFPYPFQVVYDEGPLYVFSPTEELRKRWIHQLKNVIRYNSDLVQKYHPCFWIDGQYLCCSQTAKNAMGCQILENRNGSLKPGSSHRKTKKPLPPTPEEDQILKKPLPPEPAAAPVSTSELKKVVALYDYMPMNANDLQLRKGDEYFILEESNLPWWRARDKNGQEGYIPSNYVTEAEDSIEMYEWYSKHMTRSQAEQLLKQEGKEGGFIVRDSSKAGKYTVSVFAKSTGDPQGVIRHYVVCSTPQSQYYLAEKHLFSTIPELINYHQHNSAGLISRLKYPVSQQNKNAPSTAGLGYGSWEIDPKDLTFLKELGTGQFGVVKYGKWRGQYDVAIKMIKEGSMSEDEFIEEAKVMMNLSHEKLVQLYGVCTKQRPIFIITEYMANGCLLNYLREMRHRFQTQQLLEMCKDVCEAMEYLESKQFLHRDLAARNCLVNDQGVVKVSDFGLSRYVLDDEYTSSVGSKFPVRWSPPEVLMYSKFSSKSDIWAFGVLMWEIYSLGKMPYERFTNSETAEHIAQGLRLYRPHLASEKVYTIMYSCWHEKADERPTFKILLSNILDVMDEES

Dmax [1] | DC50 [1] | SMILES | IC50 [2] | IC50 [3]
> 75% | 10 to 50 nM | Nc1ncnc2c1c(-c1ccc(Oc3ccccc3)cc1)nn2[C@@H]1CCCN(C2CCN(CCN3CCN(c4ccc5c(c4)CN(C4CCC(=O)NC4=O)C5=O)CC3)CC2)C1 (stereo partly drawn) [Compound 148, 3-(5-(4-(2-((R)-3-(4-amino-3-(4-phenoxyphenyl)-1H-pyrazolo[3,4-d]pyrimidin-1-yl)-[1,4′-bipiperidin]-1′-yl)ethyl)piperazin-1-yl)-1-oxoisoindolin-2-yl)piperidine-2,6-dione] | 1000 to 10000 nM | > 10000 nM
> 90% | 10 to 50 nM | Nc1ncnc2c1c(-c1ccc(Oc3ccccc3)cc1)nn2[C@@H]1CCCN(CC2CCN(C(=O)N3CCC(C4CCN(c5ccc6c(c5)CN(C5CCC(=O)NC5=O)C6=O)CC4)CC3)CC2)C1 (stereo partly drawn) [Compound 30, 3-(5-(1′-(4-(((R)-3-(4-amino-3-(4-phenoxyphenyl)-1H-pyrazolo[3,4-d]pyrimidin-1-yl)piperidin-1-yl)methyl)piperidine-1-carbonyl)-[4,4′-bipiperidin]-1-yl)-1-oxoisoindolin-2-yl)piperidine-2,6-dione] | 1000 to 10000 nM | 1000 to 10000 nM
> 90% | < 10 nM | Nc1ncnc2c1c(-c1ccc(Oc3ccccc3)cc1)nn2[C@@H]1CCCN(C(=O)N2CCC(CCC3CCN(c4ccc5c(c4)C(=O)N(C4CCC(=O)NC4=O)C5=O)CC3)CC2)C1 (stereo partly drawn) [Compound 71, 5-(4-(2-(1-((R)-3-(4-amino-3-(4-phenoxyphenyl)-1H-pyrazolo[3,4-d]pyrimidin-1-yl)piperidine-1-carbonyl)piperidin-4-yl)ethyl)piperidin-1-yl)-2-(2,6-dioxopiperidin-3-yl)isoindoline-1,3-dione] | 1000 to 10000 nM | 1000 to 10000 nM
> 90% | 10 to 50 nM | Nc1ncnc2c1c(-c1ccc(Oc3ccccc3)cc1)nn2C1CCN(C(=O)N2CCC(CCN3CCN(c4ccc5c(c4)CN(C4CCC(=O)NC4=O)C5=O)CC3)CC2)CC1 (stereo not shown) [Compound 94, 3-(5-(4-(2-(1-(4-(4-amino-3-(4-phenoxyphenyl)-1H-pyrazolo[3,4-d]pyrimidin-1-yl)piperidine-1-carbonyl)piperidin-4-yl)ethyl)piperazin-1-yl)-1-oxoisoindolin-2-yl)piperidine-2,6-dione] | < 1000 nM | 1000 to 10000 nM
> 90% | < 10 nM | Nc1ncnc2c1c(-c1ccc(Oc3ccccc3)cc1)nn2[C@@H]1CCCN(C(=O)N2CCN(CCN3CCC(c4ccc5c(c4)C(=O)N(C4CCC(=O)NC4=O)C5=O)CC3)CC2)C1 (stereo partly drawn) [Compound 69, 5-(1-(2-(4-((R)-3-(4-amino-3-(4-phenoxyphenyl)-1H-pyrazolo[3,4-d]pyrimidin-1-yl)piperidine-1-carbonyl)piperazin-1-yl)ethyl)piperidin-4-yl)-2-(2,6-dioxopiperidin-3-yl)isoindoline-1,3-dione] | 1000 to 10000 nM | 1000 to 10000 nM
> 90% | 10 to 50 nM | Nc1ncnc2c1c(-c1ccc(Oc3ccccc3)cc1)nn2C1CCN(C(=O)N2CCC(CC3CCN(c4ccc5c(c4)C(=O)N(C4CCC(=O)NC4=O)C5=O)CC3)CC2)CC1 (stereo not shown) [Compound 89, 5-(4-((1-(4-(4-amino-3-(4-phenoxyphenyl)-1H-pyrazolo[3,4-d]pyrimidin-1-yl)piperidine-1-carbonyl)piperidin-4-yl)methyl)piperidin-1-yl)-2-(2,6-dioxopiperidin-3-yl)isoindoline-1,3-dione] | < 1000 nM | 1000 to 10000 nM
> 75% | > 50 nM | Nc1ncnc2c1c(-c1ccc(Oc3ccccc3)cc1)nn2[C@@H]1CCCN(C2CCN(CCC3CCN(c4ccc5c(c4)C(=O)N(C4CCC(=O)NC4=O)C5=O)CC3)CC2)C1 (stereo partly drawn) [Compound 145, 5-(4-(2-((R)-3-(4-amino-3-(4-phenoxyphenyl)-1H-pyrazolo[3,4-d]pyrimidin-1-yl)-[1,4′-bipiperidin]-1′-yl)ethyl)piperidin-1-yl)-2-(2,6-dioxopiperidin-3-yl)isoindoline-1,3-dione] | > 10000 nM | > 10000 nM
> 90% | 10 to 50 nM | Nc1ncnc2c1c(-c1ccc(Oc3ccccc3)cc1)nn2C1CCN(CCOCCC2CCN(c3ccc4c(c3)CN(C3CCC(=O)NC3=O)C4=O)CC2)CC1 (stereo not shown) [Compound 20, 3-(5-(4-(2-(2-(4-(4-amino-3-(4-phenoxyphenyl)-1H-pyrazolo[3,4-d]pyrimidin-1-yl)piperidin-1-yl)ethoxy)ethyl)piperidin-1-yl)-1-oxoisoindolin-2-yl)piperidine-2,6-dione] | 1000 to 10000 nM | 1000 to 10000 nM
> 90% | < 10 nM | Nc1ncnc2c1c(-c1ccc(Oc3ccccc3)cc1)nn2[C@@H]1CCCN(C(=O)N2CCC(N3CCC(c4ccc5c(c4)C(=O)N(C4CCC(=O)NC4=O)C5=O)CC3)CC2)C1 (stereo partly drawn) [Compound 53, 5-(1′-((R)-3-(4-amino-3-(4-phenoxyphenyl)-1H-pyrazolo[3,4-d]pyrimidin-1-yl)piperidine-1-carbonyl)-[1,4′-bipiperidin]-4-yl)-2-(2,6-dioxopiperidin-3-yl)isoindoline-1,3-dione] | < 1000 nM | 1000 to 10000 nM
> 75% | > 50 nM | Nc1ncnc2c1c(-c1ccc(Oc3ccccc3)cc1)nn2[C@@H]1CCCN(CC2CCN(C(=O)N3CCN(c4ccc5c(c4)CN(C4CCC(=O)NC4=O)C5=O)CC3)CC2)C1 (stereo partly drawn) [Compound 26, 3-(5-(4-(4-(((R)-3-(4-amino-3-(4-phenoxyphenyl)-1H-pyrazolo[3,4-d]pyrimidin-1-yl)piperidin-1-yl)methyl)piperidine-1-carbonyl)piperazin-1-yl)-1-oxoisoindolin-2-yl)piperidine-2,6-dione] | 1000 to 10000 nM | 1000 to 10000 nM
> 90% | 10 to 50 nM | Nc1ncnc2c1c(-c1ccc(Oc3ccccc3)cc1)nn2[C@@H]1CCCN(C2CCN(C(=O)N3CCN(CC4CCN(c5ccc6c(c5)C(=O)N(C5CCC(=O)NC5=O)C6=O)CC4)CC3)CC2)C1 (stereo partly drawn) [Compound 171, 5-(4-((4-((R)-3-(4-amino-3-(4-phenoxyphenyl)-1H-pyrazolo[3,4-d]pyrimidin-1-yl)-[1,4′-bipiperidine]-1′-carbonyl)piperazin-1-yl)methyl)piperidin-1-yl)-2-(2,6-dioxopiperidin-3-yl)isoindoline-1,3-dione] | 1000 to 10000 nM | 1000 to 10000 nM
> 90% | < 10 nM | Nc1ncnc2c1c(-c1ccc(Oc3ccccc3)cc1)nn2[C@@H]1CCCN(C(=O)N2CCC(CN3CCN(c4ccc5c(c4)CN(C4CCC(=O)NC4=O)C5=O)CC3)CC2)C1 (stereo partly drawn) [Compound 56, 3-(5-(4-((1-((R)-3-(4-amino-3-(4-phenoxyphenyl)-1H-pyrazolo[3,4-d]pyrimidin-1-yl)piperidine-1-carbonyl)piperidin-4-yl)methyl)piperazin-1-yl)-1-oxoisoindolin-2-yl)piperidine-2,6-dione] | < 1000 nM | < 1000 nM
> 75% | > 50 nM | Nc1ncnc2c1c(-c1ccc(Oc3ccccc3)cc1)nn2[C@@H]1CCCN(C(=O)N2CCC(CCCN3CCN(c4ccc5c(c4)CN(C4CCC(=O)NC4=O)C5=O)CC3)CC2)C1 (stereo partly drawn) [Compound 106, 3-(5-(4-(3-(1-((R)-3-(4-amino-3-(4-phenoxyphenyl)-1H-pyrazolo[3,4-d]pyrimidin-1-yl)piperidine-1-carbonyl)piperidin-4-yl)propyl)piperazin-1-yl)-1-oxoisoindolin-2-yl)piperidine-2,6-dione] | > 10000 nM | > 10000 nM

— patent publication US12139492B2 (Endotarget Inc., priority 2021, dated 2024)
